Measurements published in US8507509B2, “Saturated and insaturated bi- or tricyclic aryloxyacetamine derivatives and their use as fungicides” (Syngenta Crop Protection LLC, priority 2007, dated 2013).

Columns and labels:
Septoria tritici = Septoria tritici (leaf blotch), liquid culture growth inhibition in nutrient broth; type: cell-based; conditions: Zymoseptoria tritici; 200 ppm; PDB broth, 24 C; inhibition of growth determined photometrically after 72 hrs; read-out: control of fungal infection, Septoria tritici
[1] = tested on: Puccinia recondita f.sp. tritici; assay: Puccinia recondita f.sp. tritici (wheat brown rust), wheat leaf segment assay, preventive; type: in vivo; conditions: foliar, 216 h, 200 ppm, wheat leaf segments, assessed nine days after inoculation, read-out: control of fungal infection, Puccinia recondite f.sp. tritici
Pythium ultimum = Pythium ultimum (Damping off), liquid culture growth inhibition in potato dextrose broth; type: cell-based; conditions: Globisporangium ultimum; 20 ppm; potato dextrose broth, 24° C.; inhibition of growth determined photometrically after 48 hours; read-out: control of fungal infection, Pythium ultimum
Plasmopara viticola = Plasmopara viticola (downy mildew of grapevine), grapevine leaf disk assay, preventive; type: in vivo; conditions: foliar, 168 h, 200 ppm, grapevine leaf disks, assessed seven days after inoculation, read-out: control of fungal infection, Plasmopara viticola
Pyricularia oryzae = assay: whole plant or invertebrate; type: in vivo; conditions: foliar, 96 h, read-out: control of fungal infection, Pyricularia oryzae
Phytophthora infestans = assay: whole plant or invertebrate; type: in vivo; conditions: in Solanum lycopersicum, foliar, 96 h, read-out: control of fungal infection, Phytophthora infestans
Septoria nodorum = Septoria nodorum (wheat glume blotch), wheat leaf segment assay, preventive; type: in vivo; conditions: Parastagonospora nodorum, foliar, 96 h; 200 ppm; wheat leaf segments; assessed four days after inoculation; read-out: control of fungal infection, Septoria nodorum
[2] = tested on: Erysiphe graminis f.sp. tritici; assay: Erysiphe graminis f.sp. tritici (wheat powdery mildew), wheat leaf segment assay, preventive; type: in vivo; conditions: Blumeria graminis, foliar, 96 h; 200 ppm; wheat leaf segments; assessed four days after inoculation; read-out: control of fungal infection, Etysiphe graminis f.sp. tritici
Botrytis cinerea = Botrytis cinerea (grey mould), bean leaf disk assay, preventive; type: in vivo; conditions: foliar, 96 h, 200 ppm, bean leaf disks, assessed four days after inoculation, read-out: control of fungal infection, Botrytis cinerea
Fusarium culmorum = Fusarium culmorum (root rot), liquid culture growth inhibition in nutrient broth; type: cell-based; conditions: PDB broth, 24 C, inhibition of growth determined photometrically after 48 hrs, read-out: control of fungal infection, Fusarium culmorum
Method in brief: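 Fusarium culmorum conidia from cryogenic storage were mixed into potato dextrose broth and added to compound pre-dispensed from DMSO (diluted in 0.025% Tween20). Incubated at 24 C in the dark; growth inhibition read photometrically after 48 hrs.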

SMILES | inhibition of growth at 200 ppm (Septoria tritici) | pest or weed control at 200 ppm [1] | inhibition of growth at 20 ppm (Pythium ultimum) | pest or weed control at 200 ppm (Plasmopara viticola) | pest or weed control at 200 ppm (Pyricularia oryzae) | pest or weed control at 200 ppm (Phytophthora infestans) | pest or weed control at 200 ppm (Septoria nodorum) | pest or weed control at 200 ppm [2] | melting point | pest or weed control at 200 ppm (Botrytis cinerea) | inhibition of growth at 200 ppm (Fusarium culmorum)
C#Cc1cnc2ccc(OC(SC)C(=O)NC(C)(C)C=NOCC)cc2c1 (stereo not shown) [Compound No. 118, N-(2-Ethoxyimino-1,1-dimethyl-ethyl)-2-(3-ethynyl-quinolin-6-yloxy)-2-methylsulfanyl-acetamide] | ≥ 60% | ≥ 60% | ≥ 60% | ≥ 60% | ≥ 60% | ≥ 60% | ≥ 60% | ≥ 60% |  |  | 
C#Cc1cnc2c(C)cc(OC(SC)C(=O)NC(C)(C#N)C=NOC)cc2c1 (stereo not shown) [Compound No. 56, N-(1-Cyano-2-methoxyimino-1-methyl-ethyl)-2-(3-ethynyl-8-methyl-quinolin-6-yloxy)-2-methylsulfanyl-acetamide] | ≥ 60% | ≥ 60% | ≥ 60% | ≥ 60% |  | ≥ 60% | ≥ 60% | ≥ 60% | 172 to 174 °C | ≥ 60% | 
C=CCON=CC(C)(C)NC(=O)C(Oc1cc(C)c2ncc(I)cc2c1)SC (stereo not shown) [Compound No. 45, N-(2-Allyloxyimino-1,1-dimethyl-ethyl)-2-(3-iodo-8-methyl-quinolin-6-yloxy)-2-methylsulfanyl-acetamide] | ≥ 60% |  |  | ≥ 60% | ≥ 60% | ≥ 60% | ≥ 60% | ≥ 60% |  |  | 
C#Cc1cnc2ccc(OC(SC)C(=O)NC(C)(C)C=NOCC)cc2c1 (single isomer, unassigned) [Compound No. 119, N-(2-Ethoxyimino-1,1-dimethyl-ethyl)-2-(3-ethynyl-quinolin-6-yloxy)-2-methylsulfanyl-acetamide] | ≥ 60% | ≥ 60% | ≥ 60% | ≥ 60% | ≥ 60% | ≥ 60% | ≥ 60% | ≥ 60% |  |  | 
C#Cc1cnc2c(Cl)cc(OC(SC)C(=O)NC(C)(C)C=NOCC)cc2c1 (stereo not shown) [Compound No. 116, 2-(8-Chloro-3-ethynyl-quinolin-6-yloxy)-N-(2-ethoxyimino-1,1-dimethyl-ethyl)-2-methylsulfanyl-acetamide] | ≥ 60% |  | ≥ 60% | ≥ 60% | ≥ 60% | ≥ 60% | ≥ 60% |  |  |  | 
CON=CC(C)(C)NC(=O)C(OC)Oc1ccc2ncc(I)cc2c1 (stereo not shown) [Compound No. 72, 2-(3-Iodo-quinolin-6-yloxy)-2-methoxy-N-(2-methoxyimino-1,1-dimethyl-ethyl)-acetamide] | ≥ 60% | ≥ 60% | ≥ 60% | ≥ 60% |  | ≥ 60% | ≥ 60% | ≥ 60% | 101 to 103 °C | ≥ 60% | ≥ 60%
C#Cc1cnc2ccc(OC(SC)C(=O)NC(C)(C)C=NOCC=C)cc2c1 (stereo not shown) [Compound No. 120, N-(2-Allyloxyimino-1,1-dimethyl-ethyl)-2-(3-ethynyl-quinolin-6-yloxy)-2-methylsulfanyl-acetamide] | ≥ 60% | ≥ 60% | ≥ 60% | ≥ 60% | ≥ 60% | ≥ 60% | ≥ 60% | ≥ 60% |  |  | 
CON=CC(C)(C)NC(=O)C(OC)Oc1cc(C)c2ncc(I)cc2c1 (stereo not shown) [Compound No. 73, 2-(3-Iodo-8-methyl-quinolin-6-yloxy)-2-methoxy-N-(2-methoxyimino-1,1-dimethyl-ethyl)-acetamide] | ≥ 60% | ≥ 60% | ≥ 60% | ≥ 60% |  |  | ≥ 60% | ≥ 60% | 126 to 128 °C | ≥ 60% | ≥ 60%
CON=CC(C)(C)NC(=O)C(Oc1ccc2ncc(Br)cc2c1)SC (stereo not shown) [Compound No. 15, 2-(3-Bromo-quinolin-6-yloxy)-N-(2-methoxyimino-1,1-dimethyl-ethyl)-2-methylsulfanyl-acetamide] | ≥ 60% |  | ≥ 60% | ≥ 60% | ≥ 60% | ≥ 60% |  | ≥ 60% |  |  | 
CCON=CC(C)(C)NC(=O)C(Oc1cc(C)c2ncc(Br)cc2c1)SC (stereo not shown) [Compound No. 27, 2-(3-bromo-8-methyl-quinolin-6-yloxy)-N-(2-ethoxyimino-1,1-dimethyl-ethyl)-2-methylsulfanyl-acetamide] | ≥ 60% |  |  |  | ≥ 60% | ≥ 60% |  |  |  |  | 
CON=CC(C)(C#N)NC(=O)C(Oc1cc(C)c2ncc(I)cc2c1)SC (stereo not shown) [Compound No. 55, N-(1-Cyano-2-methoxyimino-1-methyl-ethyl)-2-(3-iodo-8-methyl-quinolin-6-yloxy)-2-methylsulfanyl-acetamide] |  | ≥ 60% | ≥ 60% | ≥ 60% |  | ≥ 60% | ≥ 60% | ≥ 60% | 166 to 168 °C | ≥ 60% | ≥ 60%
CSC(Oc1cc(C)c2ncc(Br)cc2c1)C(=O)NC(C)(C)C=NO (stereo not shown) [Compound No. 31, 2-(3-Bromo-8-methyl-quinolin-6-yloxy)-N-(2-hydroxyimino-1,1-dimethyl-ethyl)-2-methylsulfanyl-acetamide] |  |  | ≥ 60% | ≥ 60% | ≥ 60% | ≥ 60% |  | ≥ 60% |  |  | ≥ 60%
C#Cc1cnc2c(Cl)cc(OC(SC)C(=O)NC(C)(C)C=NOCC=C)cc2c1 (stereo not shown) [Compound No. 117, N-(2-Allyloxyimino-1,1-dimethyl-ethyl)-2-(8-chloro-3-ethynyl-quinolin-6-yloxy)-2-methylsulfanyl-acetamide] | ≥ 60% | ≥ 60% | ≥ 60% | ≥ 60% | ≥ 60% | ≥ 60% | ≥ 60% | ≥ 60% |  |  | 
CCON=CC(C)(C)NC(=O)C(Oc1ccc2ncc(Br)cc2c1)SC (stereo not shown) [Compound No. 16, 2-(3-Bromo-quinolin-6-yloxy)-N-(2-ethoxyimino-1,1-dimethyl-ethyl)-2-methylsulfanyl-acetamide] |  |  | ≥ 60% |  | ≥ 60% | ≥ 60% |  | ≥ 60% |  |  | 
